From patent publication US11179372B2, “Isoxazoline solution containing vitamin E for use with sanitized drinking water” (Intervet Inc., priority 2015, dated 2021)

Assays:
[1] = Prevention of degradation by oxidizing sanitizer (hypochlorite) in medicated drinking water; assay type: physicochemical; details: for Colour during incubation in sanitized water: a few days into the incubation
Protocol: The Fluralaner level was determined using UHPLC. The alpha-tocopherol used was alpha-tocopherol EP (Fluka).
To prepare the test samples, the required amounts of Transcutol and Tween were measured, combined in a beaker at room temperature, and mixed magnetically. Next, when no protector was added, the required amount of Fluralaner was weighed, added, and mixed until complete dissolution, which usually required about 10 minutes, at 70% speed. […] The complete dissolution was verified visually. Next the density of the resulting solution was checked with a Densimeter, at 20° C.
To test the capacity of the different protectors to prevent degradation of Fluralaner in medicated drinking water by an oxidising sanitizer, samples of the pharmaceutical composition as prepared above were diluted to different concentrations, and incubated with different amounts of hypochlorite. Concentrations of Fluralaner in medicated drinking water used were: 1, 5, and 10 μg/ml.
The hypochlorite used was from a 13% sodium hypochlorite solution (Acros Organics), which was prepared into samples with a concentration of hypochlorite of: 0, 0.5, 2, 5, or 10 ppm, wherein 1 ppm equals 20 μM. Samples without hypochlorite served as positive controls. While the dilutions of hypochlorite were made in purified water, one additional sample at 5 ppm hypochlorite was prepared in standard tap water (Angers, France). Control samples were tested at day zero, all others were tested after an incubation for 7 days at 40° C./75% RH.
The concentration of protector in the test sample was dependent of the dilution factor of the concentrated Fluralaner composition applied: 1:10,000, 1:2000, or 1:1000, respectively.

[2] = Solubility and mixing of protectors in the base pharmaceutical composition; details: for Solubility in the base pharmaceutical composition: 0.95% w/w Fluralaner in Transcutol V and Tween 80 25:75
Protocol: To the base of a pharmaceutical composition as described herein, comprising isoxazoline, solvent, and surfactant, different compounds were added as protectors to prevent breakdown of isoxazoline when diluted in water with a water sanitizer such as hypochlorite.
Where the protector amount was zero, this sample served as unprotected control sample. The Fluralaner level was determined using UHPLC. The alpha-tocopherol used was alpha-tocopherol EP (Fluka).
For samples containing a protector, Fluralaner was added to a mixture of Transcutol V, Tween 80 and protector, and then mixed to dissolve.

[3] = Accelerated stability testing of pharmaceutical composition comprising a protector; assay type: physicochemical; details: for Appearance of the pharmaceutical composition with protector on storage: stability results up to 4 months, tests terminated
Protocol: Similar to the experiments described in Example 3 above, where the effect of water quality on Fluralaner-containing medicated drinking water was tested; here samples of the pharmaceutical composition were tested for an effect of the addition of a protector, on their stability during prolonged storage.
To test the long term stability of the pharmaceutical composition with a protector, some samples were stored under conditions of accelerated ageing. Samples of the pharmaceutical composition with or without one of the protectors, were filled out in portions of 7 gram each, in 10 ml glass vials, sealed with rubber stoppers, and stored under different conditions: 2-8° C.; 30° C./65% RH; 40° C./75% RH, and 50° C. […]

Row | Solubility in the base pharmaceutical composition [2] | SMILES | Colour during incubation in sanitized water [1] | Appearance of the pharmaceutical composition with protector on storage [3] | further results
1 | – | Cc1c(C)c2c(c(C)c1O)CC[C@@](C)(CCC[C@H](C)CCC[C@H](C)CCCC(C)C)O2 [alpha-tocopherol] | – | – | Protection of Fluralaner from degradation in sanitized drinking water ([1]; Fluralaner 1 μg/ml and 10 ppm hypochlorite, 7 days): could not protect; Protection of Fluralaner from degradation in sanitized drinking water ([1]; Fluralaner at 5 or 10 μg/ml, up to 7 days, 40° C., up to 10 ppm hypochlorite): completely protect; Stability of pharmaceutical composition, interaction by protector ([3]; stability data up to 18 months): lack of interaction; Level of alpha-tocopherol in pharmaceutical composition on storage ([3]; up to 8 months, 2-8° C., 30° C./65% RH, 40° C./75% RH, 50° C.): no significant reduction
2 | soluble | Cc1cc(C(C)(C)C)c(O)c(C(C)(C)C)c1 [BHT, butylated hydroxytoluene] | colour change did develop | discoloration | –
3 | not soluble | O=S([O-])S(=O)(=O)[O-].[Na+].[Na+] [Na-metabisulfite, Sodium metabisulfite] | – | – | –
4 | soluble | CCCCCCCCCCCCOC(=O)c1cc(O)c(O)c(O)c1 [Lauryl gallate, dodecyl gallate] | – | – | Appearance after mixing in the base pharmaceutical composition [2]: orange coloration; Appearance of the pharmaceutical composition with protector ([3]; shortly after preparation): orange coloration appeared

Row | SMILES | Solubility in the base pharmaceutical composition [2] | Colour during incubation in sanitized water [1] | Appearance of the pharmaceutical composition with protector on storage [3] | further results
5 | COc1ccc(O)c(C(C)(C)C)c1 [BHA, butylated hydroxyanisole] | soluble | colour change did develop | discoloration | –
6 | O=S([O-])[O-].[Na+].[Na+] [Na-sulphite, Sodium sulphite] | not soluble | – | – | –
